Experimental data taken from patent US20210401776A1, “METHOD OF TREATING […] SYNDROMES USING FENFLURAMINE ENANTIOMERS” (ZOGENIX INTERNATIONAL LIMITED, priority 2018, published 2021).
Entries after “also recorded” stand apart in the source; their conditions may differ.

Legend:
[1] = test system: secondarily generalized focal seizures; experiment: acute 44 mA 6 Hz test; type: in vivo, male CF-1 mice
Protocol: (§1) The antiseizure effects of racemic fenfluramine were assessed in three mouse models of acute and chronic seizures in naïve male CF-1 mice (Envigo (Indianapolis, Ind., USA); 18-35 g): 1) the acute maximal electroshock (MES) test; 2) the acute 44 mA 6 Hz test; and 3) the chronic corneal kindled mouse (CKM) model.
(§2) Methods: Testing progressed in three phases: identification, time course, and dose response. In the identification phase, mice were administered FFA (3, 10, 30 mg/kg, ip), vehicle, or retigabine (positive control, 20 or 50 mg/kg, ip) 0.5 or 2 hr before testing (n=4/group). […] Dose-dependent anticonvulsant activity of FFA was assessed by testing between 0.25 and 120 mg/kg (n=8/dose). The effect of FFA on mild motor impairment (MMI) in the fixed-speed rotarod (FSR) was assessed prior to the MES, 44 mA 6 Hz, and CKM tests.

dizocilpine-treated mice [2] = experiment: spontaneous alternation in the Y-maze, dizocilpine-induced amnesia model; type: in vivo, Male Swiss OF-1 mice
[3] = test system: Generalized tonic-clonic seizures; experiment: acute maximal electroshock (MES) test; type: in vivo, male CF-1 mice
Protocol: as §1, §2

[4] = fixed-speed rotarod, minimal motor impairment (MMI); type: in vivo, male CF-1 mice
Protocol: as §2

corneal kindled mouse = experiment: chronic corneal kindled mouse (CKM) model; type: in vivo, male CF-1 mice
Protocol: as §1, §2

dizocilpine-treated mice [5] = experiment: step-through passive avoidance, dizocilpine-induced amnesia model; type: in vivo, Male Swiss OF-1 mice
6-Hz seizures = experiment: acute mouse 6-Hz model (FIG. 9); type: in vivo, NMRI mice
Protocol: FIG. 9 includes two graphs that summarize the effects of racemic fenfluramine (abbreviated herein as “FA,” “FFA” or “FEN”) treatment in 6-Hz mice, as described in Example 2. FIG. 9A is a bar graph showing the percentage of animals protected for mice treated with vehicle, with […], and with 5 mg/kg FA. […] Protection being defined as the absence of a seizure within the expected time frame (i.e. below the minimum seizure duration in VHC treated mice).
Rapid screening of possible anticonvulsants can be performed by using acute (instead of chronic) animal models of drug-resistant seizures. […] In addition to the protocol using 44 mA pulses, more “lenient” versions of the model using 22 mA or 32 mA currents are sometimes employed.

dizocilpine-treated mice [6] = experiment: dizocilpine-induced learning deficits, statements covering both tests (Y-maze and passive avoidance); type: in vivo, Male Swiss OF-1 mice
Protocol: Experiments were conducted to determine the dose-response effects of fenfluramine (FEN) and norfenfluramine (NOR), racemate and (+)- and (−)-isomers, in an in vivo mouse model; the dizocilpine-induced amnesia model (described below) is used to test responses to drugs acting at the sigma-1 receptor (S1R) (Maurice et al., 1994a,b; Maurice, et al., 1998, Neuroscience 83:413-428).
The drugs were administered intraperitoneally (“ip” or “IP”) with dizocilpine (0.15 mg/kg) and tested in the spontaneous alternation test on day 1 and in the passive avoidance test on days 2-3.
The apparatus consisted of a 2-compartment box, with one illuminated with white polyvinylchloride (PVC) walls and a transparent cover (15×20×15 cm high), one with black polyvinylchloride walls and cover (15×20×15 cm high), and a grid floor. A guillotine door separated each compartment. A 60 W lamp was positioned 40 cm above the apparatus lit the white compartment during the experimental period. Scrambled foot shocks (0.3 mA for 3 s) were delivered to the grid floor using a shock generator scrambler (Lafayette Instruments, Lafayette, Mass., USA). The guillotine door was initially closed during the training session. Each mouse was placed into the white compartment. After 5 s, the door was raised. When the mouse entered the darkened compartment and placed all its paws on the grid floor, the door was gently closed and the 3-scrambled foot shock was delivered for 3 s. The step-through latency, i.e., the latency spent to enter the dark compartment, and the level of sensitivity to the shock were recorded. The latter was evaluated as: 0=no sign; 1=flinching reactions; 2=flinching and vocalization reactions. The retention test was carried out 24 h after training. Each mouse was placed again into the white compartment. After 5 s, the door was raised. The step-through latency was recorded up to 300 s. Animals entered the darkened compartment or were gently pushed into it and the escape latency, i.e., the time spent to return into the white compartment, was also measured up to 300 s. Results were expressed as median and interquartile (25%-75%) range.
The Y-maze is made of grey PVC. Each arm is 40 cm long, 13 cm high, 3 cm wide at the bottom, 10 cm wide at the top, and converged at an equal angle. Each mouse was placed at the end of one arm and allowed to move freely through the maze during an 8-min session. The series of arm entries, including possible returns into the same arm, were checked visually. An alternation was defined as entries into all three arms on consecutive occasions. The number of maximum alternations was therefore the total number of arm entries minus two and the percentage of alternation was calculated as: actual alternations/maximum alternations)×100. Parameters included the percentage of alternation (memory index) and total number of arm entries (exploration index).

[7] = test system: homozygous scn1Lab−/− mutants; experiment: zebrafish locomotor assay (total distance in large movements, lardist); type: in vivo, zebrafish (Danio rerio); conditions: scn1Lab−/− mutants, fixed concentration, FIG. 3
Source text: (Baraban et al, 2013). Additional phenotypes of these mutants include: abnormal optokinetic response (OKR; 5 dpf); darkened pigmentation; death by 14 dpf; spontaneous seizure-like activity; abnormal (forebrain electrographic activity (3-7 dpf); seizure activity; lower levels of serotonin in scn1lab^−/− head homogenates at 7 dpf; zebrafish express orthologs of human serotonin (5HT) receptor subtypes at 5 dpf; nighttime hyperactivity (5 dpf); in open field-increased thigmotaxis. decreased movement (at 5 dpf); no differences in GABAergic neurons compared to wild type (5 dpf); 5-HT2a (hitr2aa/b) and S-HT2c; (htr2c11) orthologs expressed in larval heads in wild-type and scn1lab−/− mutants and in adult wild-type brains.
To assay the locomotor activity of homozygous scn1Lab−/− mutants and control WT scn1Lab+/+, zebrafish larvae were placed one larva per well in a 96-well plate in 100 μL of embryo medium from 4 to 8 days post-fertilization (dpf). Each day the larvae are tracked in an automated tracking device (ZebraBox™ apparatus; Viewpoint, Lyon, France) for 10 min after 30 min habituation (100-second integration interval). All recordings were performed at the same time during daytime period. The total distance in large movements was recorded and quantified using ZebraLab™ software (Viewpoint, Lyon, France). Data was pooled together from at least three independent experiments with at least 24 larvae per condition.
Scn1Lab^−/− mutants and WT scn1Lab+/+ larvae are arrayed in the same plate and treated at 6 days post fertilization (dpf) with the test compounds (25 μM), or VHC in individual wells of a 96-well plate. After incubation at 28° C. on a 14/10 hour light/dark cycle and 30-min chamber habituation 6 and 7 dpf larvae are tracked for locomotor activity for 10 min (100-second integration interval) under dark conditions. An incubation time of 1.5 hours is further referred to as short treatment (6 dpf). Furthermore, these larvae are analyzed after more than 22 hours incubation (7 dpf), i.e. long treatment. The total locomotor activity is quantified using the parameter lardist and plotted in cm. Data for each compound is pooled together from multiple independent experiments with at least 9 larvae per treatment condition.

[8] = in vivo; cited from earlier work
[9] = test system: WT scn1Lab+/+ zebrafish larvae; experiment: maximal tolerated concentration (MTC); type: in vivo, zebrafish (Danio rerio); conditions: no signs of toxicity in 12 out of 12 larvae within 48 hours of exposure
Protocol: To evaluate the maximal tolerated concentration (MTC) of each compound, 6 dpf-old WT scn1Lab+^+/+ zebrafish larvae were incubated in a 96-well plate (tissue culture plate, flat bottom, FALCON®, USA) with different concentrations of compound or VHC at 28° C. on a 14/10 hour light/dark cycle under standard aquaculture conditions (medium is replenished daily). Each larva was individually checked under the microscope during a period of 48 hours for the following signs of toxicity: decreased or no touch response upon a light touch of the tail, loss of posture, body deformation, edema, changes in heart rate or circulation and death. […] MTC was determined as 100 micromolar (μM) for (+)-fenfluramine and both norfenfluramine enantiomers. A MTC of 50 μM was determined for (−)-fenfluramine.

[10] = test system: homozygous scn1Lab−/− mutants; experiment: epileptiform activity, open-field recordings in larval forebrain (LFP assay); type: in vivo, zebrafish (Danio rerio)

For CCNC(C)Cc1cccc(C(F)(F)F)c1 (racemic) [Fenfluramine, (RS)—N-ethyl-1-[3-(trifluoromethyl)phenyl]propan-2-amine], the protection ([1]; 4 hours) was “no protection”, the ED50 ([1]; Mus musculus, 6 Hz 44 mA, 95% CI 31.9 to 66.7 mg/kg) was 47 mg/kg and the “activity in a model of focal seizures that secondarily generalize” value ([1]; mouse, in vivo) was “some activity”. For the same compound, the “PP (%)” value (dizocilpine-treated mice [2]; Table 2 Y-Maze, drug alone 0.1 mg/kg IP) was 1.3 ± 7.9%, the “PP (%)” value (dizocilpine-treated mice [2]; Table 2 Y-Maze, drug alone 0.3 mg/kg IP) was 37.9 ± 9.4% and the “PP (%)” value (dizocilpine-treated mice [2]; Table 2 Y-Maze, drug alone 1 mg/kg IP) was 59.8 ± 6.1 ^2%. The “PP (%)” value (dizocilpine-treated mice [2]; Table 5 YMT, drug alone 0.1 mg/kg ip) was 4.4 ± 7.7%, the “PP (%)” value (dizocilpine-treated mice [2]; Table 5 YMT, drug alone 0.3 mg/kg ip) was 33.6 ± 5.7^2% and the “PP (%)” value (dizocilpine-treated mice [2]; Table 6 YMT, drug alone 0.1 mg/kg ip) was -9.81 ± 7.6^ %. For the same compound, the “PP (%)” value (dizocilpine-treated mice [2]; Table 6 YMT, drug alone 0.3 mg/kg ip) was 26.6 ± 9.8 ^2%, the protection ([3]; 0.5 hours, 3 mg/kg ip) was 0% and the protection ([3]; 0.5 hours, 10 mg/kg ip) was 0%. For the same compound, the protection ([3]; 0.5 hours, 30 mg/kg ip) was 100%, the protection ([3]; 2.0 hours, 3 mg/kg ip) was 75% and the protection ([3]; 2.0 hours, 10 mg/kg ip) was 50%. For the same compound, the protection ([3]; 2.0 hours, 30 mg/kg ip) was 100%, the “protection, time course at last time point” value ([3]; 4 hours post dosing) was 100% protection at 4 hours post dosing and the ED50 ([3]; Mus musculus, MES, Probit regression, 95% CI 1.4 to 5.1 mg/kg) was 2.9 mg/kg. For the same compound, the “anticonvulsant effect in the MES model” value ([3]; acute administration) was “substantial anticonvulsant effect”, the Impairment ([4]; 6 Hz 44 mA section, 30 mg/kg at 0.25, 0.50, 1.00 and 2.00 hours) was “Some impairment found at a dose of 30 mg/kg at timepoints of 0.25, 0.50, 1.00, and” and the Impairment ([4]; 6 Hz 44 mA section, 4 hours) was “no impairment”. For the same compound, the Impairment ([4]; at doses used in the MES model) was “No impairment on rotarod at doses used in this model”, the TD50 ([4]; male, CF-1, mouse, in vivo, intraperitoneal, reported under 6 Hz 44 mA, 95% CI 25.3 to 53.0) was 34.6 mg/kg and the mice died (corneal kindled mouse; 90 mg/kg) was 2 of 8. The mice died (corneal kindled mouse; 120 mg/kg) was 6 of 8, the anticonvulsant activity (corneal kindled mouse; all doses tested) was “Minimal anticonvulsant activity at all doses tested” and the “PP (%)” value (dizocilpine-treated mice [5]; Table 2 StepThrough/Passive Avoidance, drug alone 0.1 mg/kg IP) was 11.0 ± 11.6%. For the same compound, the “PP (%)” value (dizocilpine-treated mice [5]; Table 2 StepThrough/Passive Avoidance, drug alone 0.3 mg/kg IP) was 55.7 ± 10.5%, the “PP (%)” value (dizocilpine-treated mice [5]; Table 2 StepThrough/Passive Avoidance, drug alone 1 mg/kg IP) was 40.8 ± 13.0 ^4% and the “PP (%)” value (dizocilpine-treated mice [5]; Table 5 STPA, drug alone 0.1 mg/kg ip) was 11.2 + 12.0%. The “PP (%)” value (dizocilpine-treated mice [5]; Table 5 STPA, drug alone 0.3 mg/kg ip) was 65.5 ± 12.1^5%, the “PP (%)” value (dizocilpine-treated mice [5]; Table 6 STPA, drug alone 0.1 mg/kg ip) was 16.8 ± 14.2% and the “PP (%)” value (dizocilpine-treated mice [5]; Table 6 STPA, drug alone 0.3 mg/kg ip) was 60.1 ± 13.9 ^5%. For the same compound, the “number of mice having seizures and duration of seizures” value (6-Hz seizures; 20 and 5 mg/kg (FIG. 9)) was “dose-dependent decrease”, the “seizures in the mouse 6-Hz model” value (6-Hz seizures; Mann-Whitney p<0.05 vs. VHC) was “significantly reduced seizures” and the “period of post-seizure aggression” value (6-Hz seizures; vehicle mice displayed it) was “did not”. For the same compound, the “behavior in vivo at S1R” value (dizocilpine-treated mice [6]; mouse, in vivo) was “behaved in vivo as S1R positive modulators”.
For CCN[C@H](C)Cc1cccc(C(F)(F)F)c1 [(−)-Fenfluramine, (2R)-N-ethyl-1-[3-(trifluoromethyl)phenyl]propan-2-amine], the “PP (%)” value (dizocilpine-treated mice [2]; Table 4 Y Maze, drug alone 0.3 mg/kg IP) was 3.2 ± 8.1%, the “PP (%)” value (dizocilpine-treated mice [2]; Table 4 Y Maze, drug alone 1 mg/kg IP) was 13.8 ± 10.5 ^2% and the “reduction in seizure behavior” value [7] was 41%. The “PP (%)” value (dizocilpine-treated mice [5]; Table 4 StepThrough/PassiveAvoidance, drug alone 0.3 mg/kg IP) was 3.9 ± 8.4%, the “PP (%)” value (dizocilpine-treated mice [5]; Table 4 StepThrough/PassiveAvoidance, drug alone 1 mg/kg IP) was 7.3 ± 13.8 ^4% and the mean elimination half-life [8] was 25 h. The “maximum tolerated concentration (MTC)” value [9] was 50 µM, the “effect on PRE-084 efficacy” value (dizocilpine-treated mice [6]; 1 mg/kg on effective doses of PRE-084 (0.3-1 mg/kg), FIG. 10 (e, f)) was “without effect on PRE-084 efficacy” and the “effect on PRE-084 efficacy” value (dizocilpine-treated mice [6]; combined with PRE-084 in dizocilpine-treated mice) was “without any effect on PRE-084 efficacy”. For the same compound, the “behavior as S1R antagonist” value (dizocilpine-treated mice [6]; mouse, in vivo) was “does not behave as a S1R antagonist”, the “anti-epileptiform activity (frequency and cumulative duration of epileptiform events over 10 minutes)” value ([10]; 50 micromolar, FIGS. 4 and 5) was “comparable” and the “LFP Assay” value ([10]; Table 1, 25, 59 and 100 μM, oral via embryo medium) was “Also reduces spikes but less; also recorded: Normal dose-response; higher”.
